Measured values reported in patent US20230190760A1, “ADVANTAGEOUS THERAPIES FOR DISORDERS MEDIATED BY IKAROS OR AIOLOS” (C4 Therapeutics, Inc., priority 2020, published 2023).

Assays:
NCIH929.1 cells = experiment: NCIH929.1 cell viability assay (CellTiter-Glo, GI50); format: cell-based; conditions: 96 hr
[1] = Plasma PK and interconversion in rat; format: in vivo; conditions: Compound 1 30 mg/kg PO
Procedure: (§1) Compound 1 was administered to a rat at a concentration of 30 mg/kg PO and monkeys at a concentration of either 60 μg/kg or 100 μg/kg PO. At the indicated timepoints shown in FIG. 25A and FIG. 25B, plasma samples were collected and the Cmax, half-life, and AUC0-inf were determined for both Compound 1 and a metabolite of Compound 1, Compound 14. The percent of Compound 14 was also determined (Table 13). PK values dose normalized to 1 mg/kg. FIG. 25A is a graph measuring the concentration of Compound 1 or Compound 14 over the course of 24 hours in monkeys administered 100 μg/kg or 60 μg/kg of Compound 1. FIG. 25B is a graph measuring the concentration of Compound 1 or Compound 14 over the course of 24 hours in a rat administered 30 mg/kg of Compound 1.

[2] = Plasma PK and interconversion in monkeys; format: in vivo; conditions: monkey, Compound 1 60 μg/kg or 100 μg/kg PO, dose normalized to 1 mg/kg
Procedure: as §1

[3] = system: RPMI-8226 multiple myeloma tumors; conditions: Compound 1 10 μg/kg PO daily, Dexamethasone 5000 μg/kg IV once a week, Combination
Procedure: A xenograft study was conducted in female CB17 SCID mice bearing RPMI-8226 multiple myeloma tumors. Female SCID mice were inoculated subcutaneously in the right flank with 10×10^6 tumors cells in 0.2 mL of PBS supplemented with matrigel (PBS:matrigel=1:1). Tumor volume was measured twice weekly in two dimensions using calipers, and volume was calculated using the formula: (w2×l)/2=mm^3, assuming 1 mg is equivalent to 1 mm^3 of tumor volume. […] Treatment began on Day 0 with established subcutaneous RPMI-8226 tumors with a mean tumor volume (MTV) of 130 mm^3.
All agents were administered to mice bearing RPMI-8226 tumors on day 0 and dosed until an individual moue tumor volume reached or exceeded 1000 mm^3, at which point the mouse was removed from the study and dosing stopped. […] Dexamethasone was dosed IV once a week at 5000 μg/kg and formulated in saline. […] Body weight and MTV were measured on a 2× weekly schedule. The study end point was reaching a TV greater than 1000 mm^3, at which point any mouse with a TV reaching this cut off TV was removed from the study. […] The survival analysis used was Logrank (Mantel-Cox test). Data are expressed as MTV±SEM.

TMD8 DLBCL tumors = conditions: Compound 1 50 μg/kg, Ibrutinib 12500 μg/kg, Combination of both; PO daily
Procedure: A xenograft study was conducted in female CB17 SCID mice bearing TMD8 DLBCL tumors. Female SCID mice were inoculated subcutaneously in the right flank with 5×10^6 tumors cells in 0.2 mL of PBS supplemented with matrigel (PBS:matrigel=1:1). Tumor volume was measured twice weekly in two dimensions using calipers, and volume was calculated using the formula: (w2×l)/2=mm^3, assuming 1 mg is equivalent to 1 mm^3 of tumor volume. […] Treatment began on Day 0 with established subcutaneous TMD8 tumors with a mean tumor volume (MTV) of 107-108 mm^3.
All agents were administered to mice bearing TMD8 tumors on day 0 and dosed PO daily until individual tumor volumes reached or exceeded 1500 mm^3, at which point dosing stopped and the individual mouse was removed from the study. Compound 1 was dosed at 50 μg/kg and was formulated in PEG400 (30% v/v)+70% v/v HPMC (1% w/v) in citrate buffer (pH 5). Ibrutinib was dosed at 12.5 mg/kg and formulated in 0.5% MC+0.4% cremophor EL+0.1% sodium lauryl sulfate. Compound 1 was also dosed in combination with Ibrutinib at their respective single agent doses. Body weight and MTV was measured on a 2× weekly schedule and the study end point was when all mice were removed from the study on day 54. Statistical analysis was performed using survival analysis and the Logrank test (Mantel-Cox test). Data are expressed as MTV±SEM.

r/r subjects with MCL = conditions: r/r MCL following bortezomib; cited from earlier work

Structure (SMILES) | GI50 (NCIH929.1 cells) [nM] | other results
CC(C)(C)C(=O)N1CCC(C)(n2cc(Cc3ccc4c5c(cccc35)C(=O)N4C3CCC(=O)NC3=O)cn2)CC1 (centres unmarked) [Compound 11, 3-(6-((1-(4-methyl-1-pivaloylpiperidin-4-yl)-1H-pyrazol-4-yl)methyl)-2-oxobenzo[cd]indol-1(2H)-yl)piperidine-2,6-dione] | 0.0272 | 
O=C1CC[C@@H](N2C(=O)c3cccc4c(Cc5ccc(CN6CCOCC6)cc5)ccc2c34)C(=O)N1 [Compound 14] |  | AUC(0-inf) ([1]; dose normalized to 1 mg/kg): 47 ng·h/mL; Cmax ([1]; dose normalized to 1 mg/kg): 6 ng/mL; half-life ([1]; read-out: T ½ (converted)): 2.7 h; Cmax [2]: 5 ng/mL
C[C@@H]1C[C@H]2[C@@H]3CCC4=CC(=O)C=C[C@]4(C)[C@@]3(F)[C@@H](O)C[C@]2(C)[C@@]1(O)C(=O)CO [Dexamethasone, reference compound] |  | Median Survival [3]: 30
CC1(CN2CCC(C)(n3cc(Cc4ccc5c6c(cccc46)C(=O)N5C4CCC(=O)NC4=O)cn3)CC2)CC1 (centres unmarked) [Compound 8, 3-(6-((1-(4-methyl-1-((1-methylcyclopropyl)methyl)piperidin-4-yl)-1H-pyrazol-4-yl)methyl)-2-oxobenzo[cd]indol-1(2H)-yl)piperidine-2,6-dione] | 0.138 | 
CC1(C(=O)N2CCC(C)(n3cc(Cc4ccc5c6c(cccc46)C(=O)N5C4CCC(=O)NC4=O)cn3)CC2)CCC1 (centres unmarked) [Compound 6, 3-(6-((1-(4-methyl-1-(1-methylcyclobutane-1-carbonyl)piperidin-4-yl)-1H-pyrazol-4-yl)methyl)-2-oxobenzo[cd]indol-1(2H)-yl)piperidine-2,6-dione] | 0.0146 | 
O=C1CCC(N2C(=O)c3cccc4c(Cc5cnn(C6CCN(CC7(F)CC7)CC6)c5)ccc2c34)C(=O)N1 (centres unmarked) [Compound 13, 3-(6-((1-(1-((1-fluorocyclopropyl)methyl)piperidin-4-yl)-1H-pyrazol-4-yl)methyl)-2-oxobenzo[cd]indol-1(2H)-yl)piperidine-2,6-dione] | 0.155 | 
O=C1CC[C@H](N2C(=O)c3cccc4c(Cc5ccc(CN6CCC7(CCCO7)CC6)cc5)ccc2c34)C(=O)N1 (single isomer, unassigned) [Compound 12] | 0.0107 | 
CC(C)(C)CN1CCC(C)(n2cc(Cc3ccc4c5c(cccc35)C(=O)N4C3CCC(=O)NC3=O)cn2)CC1 (centres unmarked) [Compound 10, 3-(6-((1-(4-methyl-1-neopentylpiperidin-4-yl)-1H-pyrazol-4-yl)methyl)-2-oxobenzo[cd]indol-1(2H)-yl)piperidine-2,6-dione] | 0.0621 | 
O=C1CCC(N2C(=O)c3cccc4c(Cc5ccc(CN6CCOCC6)cc5)ccc2c34)C(=O)N1 (centres unmarked) [Compound 5, 3-(6-(4-(morpholinomethyl)benzyl)-2-oxobenzo[cd]indol-1(2H)-yl)piperidine-2,6-dione] | 0.0498 | 
O=C1CCC(N2C(=O)c3cccc4c(Cc5ccc(CN6CCN(c7ccccc7F)CC6)cc5)ccc2c34)C(=O)N1 (centres unmarked) [Compound 3, 3-(6-(4-((4-(2-fluorophenyl)piperazin-1-yl)methyl)benzyl)-2-oxobenzo[cd]indol-1(2H)-yl)piperidine-2,6-dione] | 0.0409 | 
CC(C)(C)CN1CCC(n2cc(Cc3ccc4c5c(cccc35)C(=O)N4C3CCC(=O)NC3=O)cn2)CC1 (centres unmarked) [Compound 9, 3-(6-((1-(1-neopentylpiperidin-4-yl)-1H-pyrazol-4-yl)methyl)-2-oxobenzo[cd]indol-1(2H)-yl)piperidine-2,6-dione] | 0.0297 | 
C=CC(=O)N1CCC[C@@H](n2nc(-c3ccc(Oc4ccccc4)cc3)c3c(N)ncnc32)C1 [Ibrutinib, 1-[(3R)-3-[4-amino-3-(4-phenoxy-phenyl)pyrazolo[3,4-d]pyrimidin-1-yl]piperidin-1-yl]prop-2-en-1-one, reference compound] |  | Median Survival (TMD8 DLBCL tumors): 28
CC1(CN2CCC(n3cc(Cc4ccc5c6c(cccc46)C(=O)N5C4CCC(=O)NC4=O)cn3)CC2)CC1 (centres unmarked) [Compound 7, 3-(6-((1-(1-((1-methylcyclopropyl)methyl)piperidin-4-yl)-1H-pyrazol-4-yl)methyl)-2-oxobenzo[cd]indol-1(2H)-yl)piperidine-2,6-dione] | 0.0159 | 
N#Cc1ccc(N2CCN(Cc3ccc(Cc4ccc5c6c(cccc46)C(=O)N5C4CCC(=O)NC4=O)cc3)CC2)c(F)c1 (centres unmarked) [Compound 4, 4-(4-(4-((1-(2,6-dioxopiperidin-3-yl)-2-oxo-1,2-dihydrobenzo[cd]indol-6-yl)methyl)benzyl)piperazin-1-yl)-3-fluorobenzonitrile] | 0.0201 | 
Nc1cccc2c1CN(C1CCC(=O)NC1=O)C2=O (centres unmarked) [lenalidomide] |  | median duration of response [DOR] (r/r subjects with MCL): 16.6 months; overall response rate [ORR] (r/r subjects with MCL): 28%
CC1(CN2CCC(n3cc(Cc4ccc5c6c(cccc46)C(=O)N5C4CCC(=O)NC4=O)cn3)CC2)CCC1 (centres unmarked) [Compound 2, 3-(6-((1-(1-((1-methylcyclobutyl)methyl)piperidin-4-yl)-1H-pyrazol-4-yl)methyl)-2-oxobenzo[cd]indol-1(2H)-yl)piperidine-2,6-dione] | 0.00933 | 
